According to US8604034B2, “Substituted imidazo[1,2-α]pyrrolo[1,2-d]pyrazines for treating respiratory syncytial virus (RSV) infections” (Biota Scientific Management Pty Ltd., priority 2010, dated 2013):
Where two headings read alike, the source gives them in different places.

Test system: RSV A2
Assay: RSV antiviral cytopathic effect (CPE) assay
Type: cell-based
Settings: human respiratory syncytial virus, HEp-2, 120 h, HEp2 cells infected with RSV A2 (moi ~0.01), 5 days, MTT readout
Method: Compounds of the invention were tested for their antiviral activity against respiratory syncytial virus. Cytopathic effect (CPE) assays were performed essentially as described in the literature (see for example Watanabe et al, 1994, J. Virological Methods, 48:257). Serial dilutions of the test compounds were made in 96 well plates. HEp2 cells (1.0×10^4 cells/well) were infected with RSV at a low multiplicity of infection (e.g. RSV A2 at an moi of ˜0.01) and added to plates to assess antiviral activity. Uninfected HEp2 cells were used to assess compound cytotoxicity. Assays were incubated for 5 days at 37° C. in a 5% CO2 atmosphere. The extent of CPE was determined via metabolism of the vital dye 3-(4,5-dimethylthiaxol-2-yl)-2,5-diphenyltetrazolium bromide (MTT). MTT (1 mg/ml) was added to each well and plates incubated for 2 hours incubation at 37° C. Wells were aspirated, iso-propanol (200 μL) was added and absorbance values read at 540/650 nm. Compound concentrations that inhibited CPE by 50% (EC50) and developed cytotoxicity (CC50) were calculated using non-linear regression analysis.
Representative mean EC50 values obtained are also provided. In the inventors' experience, replicate EC50 values usually fall within three standard deviations of the mean.

[1] = read-out: Activity Range (RSV A2 EC50)
[2] = mean EC50, read-out: RSV A2 EC50

SMILES: Cc1nocc1C(=O)N1CCN2C(=O)c3cc(C(=O)N(C)C)cn3CC12c1ccc(Cl)cc1 (stereo not shown) [Compound 38, 10a-(4-chlorophenyl)-N,N-dimethyl-1-[(3-methyl-1,2-oxazol-4-yl)carbonyl]-5-oxo-2,3,10,10a-tetrahydro-1H,5H-imidazo[1,2-a]pyrrolo[1,2-d]pyrazine-7-carboxamide]
- EC50 [1]: > 10000 nM

SMILES: Cc1nocc1C(=O)N1CCN2C(=O)c3cccc(=O)n3CC12c1ccc(Cl)cc1 (stereo not shown) [Compound 39, 11a-(4-chlorophenyl)-1-[(3-methyl-1,2-oxazol-4-yl)carbonyl]-2,3,11,11a-tetrahydro-1H-imidazo[1,2-a]pyrido[1,2-d]pyrazine-5,9-dione]
- EC50 [1]: < 49 nM
- EC50 [2]: 15 nM

SMILES: Cc1oncc1C(=O)N1CCN2C(=O)c3cccc(=O)n3CC12c1ccc(Cl)cc1 (stereo not shown) [Compound 40]
- EC50 [1]: 100 to 499 nM
- EC50 [2]: 210 nM

SMILES: Cc1cc2n(n1)CC1(c3ccc(Cl)cc3)N(C(=O)NCCc3ccccc3)CCN1C2=O (stereo not shown) [Compound 41, 10a-(4-chlorophenyl)-7-methyl-5-oxo-N-(2-phenylethyl)-2,3,10,10a-tetrahydro-1H,5H-imidazo[1,2-a]pyrazolo[1,5-d]pyrazine-1-carboxamide]
- EC50 [1]: > 10000 nM

SMILES: Cc1cc2n(n1)CC1(c3ccc(Cl)cc3)N(C(=O)c3ccc(F)cc3)CCN1C2=O (stereo not shown) [Compound 42]
- EC50 [1]: > 10000 nM

SMILES: Cc1cc2n(n1)CC1(c3ccc(Cl)cc3)N(C(=O)c3ccoc3)CCN1C2=O (stereo not shown) [Compound 43]
- EC50 [1]: 500 to 10000 nM
- EC50 [2]: 3400 nM

SMILES: Cc1cc2n(n1)CC1(c3ccc(Cl)cc3)N(C(=O)c3cccnc3)CCN1C2=O (stereo not shown) [Compound 44]
- EC50 [1]: > 10000 nM

SMILES: Cc1cc2n(n1)CC1(c3ccc(Cl)cc3)N(C(=O)c3ccc(F)nc3)CCN1C2=O (stereo not shown) [Compound 45]
- EC50 [1]: > 10000 nM

SMILES: Cc1cc2n(n1)CC1(c3ccc(Cl)cc3)N(C(=O)NCc3ccccc3)CCN1C2=O (stereo not shown) [Compound 46]
- EC50 [1]: > 10000 nM

SMILES: Cc1cc2n(n1)CC1(c3ccc(Cl)cc3)NCCN1C2=O (stereo not shown) [Compound 47]
- EC50 [1]: > 10000 nM

SMILES: O=C(NCCc1ccccc1)N1CCN2C(=O)c3cccn3CC12c1ccc(Cl)cc1 (stereo not shown) [Compound 48]
- EC50 [1]: 500 to 10000 nM
- EC50 [2]: 1300 nM

SMILES: O=C(c1conc1C(F)(F)F)N1CCN2C(=O)c3cccn3CC12c1ccc(Cl)cc1 (stereo not shown) [Compound 49]
- EC50 [1]: < 49 nM
- EC50 [2]: 7.9 nM

SMILES: Cc1nocc1C(=O)N1CCN2C(=O)c3cccn3CC12C1CCOCC1 (stereo not shown) [Compound 50, 1-[(3-methyl-1,2-oxazol-4-yl)carbonyl]-10a-(tetrahydro-2H-pyran-4-yl)-2,3,10,10a-tetrahydro-1H,5H-imidazo[1,2-a]pyrrolo[1,2-d]pyrazin-5-onel]
- EC50 [1]: 500 to 10000 nM
- EC50 [2]: 1420 nM

SMILES: COc1ccc(C23Cn4cccc4C(=O)N2CCN3C(=O)c2cnoc2)cc1 (stereo not shown) [Compound 51]
- EC50 [1]: 500 to 10000 nM
- EC50 [2]: 700 nM

SMILES: COc1ccc(C23Cn4cccc4C(=O)N2CCN3C(=O)c2conc2C(F)(F)F)cc1 (stereo not shown) [Compound 52]
- EC50 [1]: < 49 nM
- EC50 [2]: 24 nM

SMILES: COc1ccc(C23Cn4cccc4C(=O)N2CCN3C(=O)c2c(C)noc2C)cc1 (stereo not shown) [Compound 53]
- EC50 [1]: 100 to 499 nM
- EC50 [2]: 260 nM

SMILES: COc1ccc(C23Cn4cccc4C(=O)N2CCN3C(=O)c2ccoc2)cc1 (stereo not shown) [Compound 54]
- EC50 [1]: 500 to 10000 nM
- EC50 [2]: 600 nM

SMILES: COc1ccc(C23Cn4cccc4C(=O)N2CCN3C(=O)c2ocnc2C)cc1 (stereo not shown) [Compound 55]
- EC50 [1]: 500 to 10000 nM
- EC50 [2]: 2500 nM

SMILES: COc1ccc(C23Cn4cccc4C(=O)N2CCN3C(=O)c2snnc2C)cc1 (stereo not shown) [Compound 56]
- EC50 [1]: 100 to 499 nM
- EC50 [2]: 370 nM

SMILES: Cc1nocc1C(=O)N1CCN2C(=O)c3cccn3CC12c1ccc2c(c1)CCO2 (stereo not shown) [Compound 57]
- EC50 [1]: < 49 nM
- EC50 [2]: 14 nM

SMILES: COc1ccc(C23Cn4cccc4C(=O)N2CCN3C(=O)c2conc2C)cn1 (stereo not shown) [Compound 58]
- EC50 [1]: < 49 nM
- EC50 [2]: 49 nM

SMILES: COc1ccc(C23Cn4cccc4C(=O)N2CCN3C(=O)c2ncoc2C2CC2)cc1 (stereo not shown) [Compound 59]
- EC50 [1]: 100 to 499 nM
- EC50 [2]: 180 nM

SMILES: COc1ccc(C23Cn4cccc4C(=O)N2CCN3C(=O)c2cccn2C)cc1 (stereo not shown) [Compound 60]
- EC50 [1]: 500 to 10000 nM
- EC50 [2]: 4700 nM

SMILES: COc1ccc(C23Cn4cccc4C(=O)N2CCN3C(=O)c2ccnn2C)cc1 (stereo not shown) [Compound 61]
- EC50 [1]: 500 to 10000 nM
- EC50 [2]: 980 nM

SMILES: Cc1nocc1C(=O)OCc1ccc(C23Cn4cccc4C(=O)N2CCN3C(=O)c2conc2C)cc1 (stereo not shown) [Compound 62, 4-{1-[(3-methyl-1,2-oxazol-4-yl)carbonyl]-5-oxo-2,3-dihydro-1H,5H-imidazo[1,2-a]pyrrolo[1,2-d]pyrazin-10a(10H)-yl}benzyl 3-methyl-1,2-oxazole-4-carboxylate]
- EC50 [1]: < 49 nM
- EC50 [2]: 48 nM

SMILES: Cc1nocc1C(=O)N1CCN2C(=O)c3cc(-c4ccccn4)nn3CC12c1ccc(Cl)cc1 (stereo not shown) [Compound 63, 10a-(4-chlorophenyl)-1-[(3-methyl-1,2-oxazol-4-yl)carbonyl]-7-(pyridin-2-yl)-2,3,10,10a-tetrahydro-1H,5H-imidazo[1,2-a]pyrazolo[1,5-d]pyrazin-5-one]
- EC50 [1]: < 49 nM
- EC50 [2]: 21 nM

SMILES: Cc1nocc1C(=O)N1CCN2C(=O)c3cc(-c4ccccc4)nn3CC12c1ccc(Cl)cc1 (stereo not shown) [Compound 64]
- EC50 [1]: 500 to 10000 nM
- EC50 [2]: 8600 nM

SMILES: COc1ccc(C23Cn4cc(F)cc4C(=O)N2CCN3C(=O)c2conc2C)cc1 (stereo not shown) [Compound 65]
- EC50 [1]: 50 to 99 nM
- EC50 [2]: 66 nM

SMILES: COc1ccc(C23Cn4cc(F)cc4C(=O)N2CCN3C(=O)c2conc2C(F)(F)F)cc1 (stereo not shown) [Compound 66]
- EC50 [1]: < 49 nM
- EC50 [2]: 15 nM

SMILES: CCc1nocc1C(=O)N1CCN2C(=O)c3cccn3CC12c1ccc(OC)cc1 (stereo not shown) [Compound 67]
- EC50 [1]: < 49 nM
- EC50 [2]: 17 nM

SMILES: COc1ccc(C23Cn4cccc4C(=O)N2CCN3C(=O)c2conc2C(C)C)cc1 (stereo not shown) [Compound 68]
- EC50 [1]: 50 to 99 nM
- EC50 [2]: 53 nM

SMILES: Cc1nocc1C(=O)N1CCN2C(=O)c3cccn3CC12c1ccc(O)cc1 (stereo not shown) [Compound 69]
- EC50 [1]: 100 to 499 nM
- EC50 [2]: 160 nM

SMILES: Cc1nocc1C(=O)N1CCN2C(=O)c3cc(-c4ccco4)nn3CC12c1ccc(Cl)cc1 (stereo not shown) [Compound 70]
- EC50 [1]: < 49 nM
- EC50 [2]: 3.6 nM

SMILES: COc1ccc(C23Cn4cccc4C(=O)N2CCN3C(=O)c2cccnc2)cc1 (stereo not shown) [Compound 71]
- EC50 [1]: > 10000 nM
- EC50 [2]: 11000 nM

SMILES: Cc1nocc1C(=O)N1CCN2C(=O)c3ccnn3CC12c1ccc(Cl)cc1 (stereo not shown) [Compound 72]
- EC50 [1]: < 49 nM
- EC50 [2]: 48 nM

SMILES: Cc1nocc1C(=O)N1CCN2C(=O)c3cccn3CC12c1ccsc1 (stereo not shown) [Compound 73]
- EC50 [1]: 100 to 499 nM
- EC50 [2]: 250 nM

SMILES: Cc1nocc1C(=O)N1CCN2C(=O)c3cccn3CC12c1cccs1 (stereo not shown) [Compound 74]
- EC50 [1]: 100 to 499 nM
- EC50 [2]: 220 nM

SMILES: COc1ccc(C23Cn4cc(-c5nnn[nH]5)cc4C(=O)N2CCN3C(=O)c2conc2C)cc1 (stereo not shown) [Compound 75, 10a-(4-methoxyphenyl)-1-[(3-methyl-1,2-oxazol-4-yl)carbonyl]-7-(1H-tetrazol-5-yl)-2,3,10,10a-tetrahydro-1H,5H-imidazo[1,2-a]pyrrolo[1,2-d]pyrazin-5-one]
- EC50 [1]: > 10000 nM

SMILES: COCc1ccc(C23Cn4cccc4C(=O)N2CCN3C(=O)c2conc2C)cc1 (stereo not shown) [Compound 76]
- EC50 [1]: 50 to 99 nM
- EC50 [2]: 67 nM

SMILES: Cc1ccc([C@@]23Cn4cccc4C(=O)N2CCN3C(=O)c2conc2C)cn1 [Compound 77A, (10aS)-1-[(3-methyl-1,2-oxazol-4-yl)carbonyl]-10a-(6-methylpyridin-3-yl)-2,3,10,10a-tetrahydro-1H,5H-imidazo[1,2-a]pyrrolo[1,2-d]pyrazin-5-one]
- EC50 [1]: 500 to 10000 nM
- EC50 [2]: 7300 nM

SMILES: Cc1ccc([C@]23Cn4cccc4C(=O)N2CCN3C(=O)c2conc2C)cn1 [Compound 77B, (10aR)-1-[(3-methyl-1,2-oxazol-4-yl)carbonyl]-10a-(6-methylpyridin-3-yl)-2,3,10,10a-tetrahydro-1H,5H-imidazo[1,2-a]pyrrolo[1,2-d]pyrazin-5-one]
- EC50 [1]: < 49 nM
- EC50 [2]: 19 nM

SMILES: Cc1ccc(C23Cn4cccc4C(=O)N2CCN3C(=O)c2conc2C)cn1 (stereo not shown) [Compound 77]
- EC50 [1]: 50 to 99 nM
- EC50 [2]: 56 nM

SMILES: Cc1nocc1C(=O)N1CCN2C(=O)c3cccn3CC12c1ccc[n+]([O-])c1 (stereo not shown) [Compound 78, 1-[(3-methyl-1,2-oxazol-4-yl)carbonyl]-10a-(1-oxidopyridin-3-yl)-2,3,10,10a-tetrahydro-1H,5H-imidazo[1,2-a]pyrrolo[1,2-d]pyrazin-5-one]
- EC50 [1]: 500 to 10000 nM
- EC50 [2]: 5800 nM

SMILES: Cc1nocc1C(=O)N1CCN2C(=O)c3ccc(Cl)n3CC12c1ccc(F)cc1 (stereo not shown) [Compound 80]
- EC50 [1]: < 49 nM
- EC50 [2]: 3.1 nM

SMILES: Cc1nocc1C(=O)N1CCN2C(=O)c3ccc(Cl)n3CC12C1CCOCC1 (stereo not shown) [Compound 81, 8-chloro-1-[(3-methyl-1,2-oxazol-4-yl)carbonyl]-10a-(tetrahydro-2H-pyran-4-yl)-2,3,10,10a-tetrahydro-1H,5H-imidazo[1,2-a]pyrrolo[1,2-d]pyrazin-5-one]
- EC50 [1]: 50 to 99 nM
- EC50 [2]: 67 nM

SMILES: COc1ccc(C23Cn4cc(-c5cnn(C)c5)cc4C(=O)N2CCN3C(=O)c2conc2C)cc1 (stereo not shown) [Compound 82]
- EC50 [1]: < 49 nM
- EC50 [2]: 48 nM

SMILES: COc1ccc(C23Cn4cc(-c5cccnc5)cc4C(=O)N2CCN3C(=O)c2conc2C)cc1 (stereo not shown) [Compound 83]
- EC50 [1]: 50 to 99 nM
- EC50 [2]: 120 nM

SMILES: COc1ccc(C23Cn4cc(-c5ccncc5)cc4C(=O)N2CCN3C(=O)c2conc2C)cc1 (stereo not shown) [Compound 84]
- EC50 [1]: < 49 nM
- EC50 [2]: 18 nM
